Key:
Pseudomonas aeruginosa = assay: Photodynamic inactivation of Pseudomonas aeruginosa in stem cell-containing solution; type: cell-based; settings: 25 μM sensitizer, light >600 nm, 35 mW/cm^2, about 10^5 bacteria/ml in stem cell solution (FIG. 1)
Experimental: Photodynamic Treatment of Stem Cell-Containing Solution Contaminated with Pseudomonas
(§1) The following parameters were measured:
Inactivation of P. aeruginosa; and […]

[1] = system: stem cells from umbilical cord blood
Experimental: Stem cells were isolated from fresh umbilical cord blood using hydroxy ethylstarch (HES) sedimentation (Perutelli P. et al, Vox Sang. 76(4) pp 237-40 (1999); Adorno G. et al, Clin. Lab. Haematol. 20(6) pp 341-3 (1998)). The resulting solution contained 20*10^6 cells/ml, as determined using an automatic cell counter (Sysmex K1000, TOA Medical Electronics, Kobe, Japan).
Stock solutions of Pseudomonas aeruginosa were added to the stem cell solution such that the volume of the spike was <10% of the total volume of the solution, and the number of bacteria was about 10^5/ml. A sensitizer, monophenyl-tri(N-methyl-4-pyridyl)porphyrin chloride (TriP(4), Mid-Century, Posen, Ill. USA), was added to a final concentration of 25 μM. The suspension were thoroughly mixed and divided into 3-ml aliquots in polystyrene culture dishes with a diameter of 6 cm (Greiner, Alphen a/d Rijn, the Netherlands), and agitated at room temperature on a horizontal reciprocal shaker (60 cycles/min, GFL, Burgwedel, Germany) for 5 min. in the dark. […] The irradiance at the cell layer was 35 mW/cm^2, as measured with an IL1400A photometer equipped with a SEL033 detector (International Light, Newburyport, Mass. USA). The following parameters were measured:
Influence of the treatment on stem cell differentiation (as measured by cfu-e, bfu-e, cfu-m, cfu-gm, and cfu-gem). […]

[2] = system: CD34-positive cells (stem cells); assay: Viability of the stem cells after photodynamic treatment; type: cell-based; settings: 25 μM sensitizer, illumination 1 hour, vs control (no illumination, no sensitizer) (FIG. 2)
Experimental: as §1
Viability of the stem cells.

## C[n+]1ccc(-c2c3nc(c(-c4cc[n+](C)cc4)c4ccc([nH]4)c(-c4cc[n+](C)cc4)c4nc(c(-c5ccccc5)c5ccc2[nH]5)C=C4)C=C3)cc1.[Cl-].[Cl-].[Cl-] [TriP(4), monophenyl-tri(N-methyl-4-pyridyl)porphyrin chloride]
Pseudomonas aeruginosa
  Inactivation of P. aeruginosa: effectively killed
[1]
  CFU-Mk, PDT (60′): 38
[2]
  viability of CD34-positive cells (stem cells): remains within the error margin for the control experiment
